From US10080757B2 (WISCONSIN ALUMNI RESEARCH FOUNDATION, priority 2016, dated 2018)
Where two headings read alike, the source gives them in different places.

Experiments:
C. elegans = C. elegans growth and proliferation; type: in vivo; settings: 250 μM; Table 8
recombinant MtbUGM = molecular target: T1, recombinant MtbUGM (Mycobacterium tuberculosis, UniProt P9WIQ1); test: biochemical; settings: for inhibition at 100 µM: read-out: % inhib MtbUGM (100 μM); for inhibition at 50 µM: read-out: % inhib MtbUGM (50 μM); for inhibition at 10 µM: read-out: % inhib MtbUGM (10 μM)
T1 construct: made in house
T1 sequence (P9WIQ1 whole entry): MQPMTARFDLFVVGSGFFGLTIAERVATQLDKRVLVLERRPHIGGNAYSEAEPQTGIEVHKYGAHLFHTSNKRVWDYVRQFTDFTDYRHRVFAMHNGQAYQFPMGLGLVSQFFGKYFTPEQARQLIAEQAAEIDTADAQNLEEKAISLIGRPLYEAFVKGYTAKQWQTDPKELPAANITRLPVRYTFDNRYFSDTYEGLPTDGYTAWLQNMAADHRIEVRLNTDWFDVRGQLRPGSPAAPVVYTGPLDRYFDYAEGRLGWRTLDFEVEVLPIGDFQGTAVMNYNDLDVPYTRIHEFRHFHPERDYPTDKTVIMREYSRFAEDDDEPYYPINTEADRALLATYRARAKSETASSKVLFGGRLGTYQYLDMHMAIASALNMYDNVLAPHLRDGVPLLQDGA

SMILES | inhibition at 100 µM (recombinant MtbUGM; 100 μM, mean of two replicates) [%] | inhibition at 50 µM (recombinant MtbUGM; 50 μM, mean of two replicates) [%] | also measured
COC(=O)CC1Sc2nnc(Cc3ccc(Br)cc3)n2N=C1c1ccc(Cl)cc1 (centres unmarked) [Compound 14, Methyl-2-(3-(4-bromobenzyl)-6-(4-chlorophenyl)-7H-[1,2,4]triazolo[3,4-b][1,3,4]thiadiazin-7-yl)acetate] | 0 | – | Effective inhibitor of C. elegans growth at 250 μM (C. elegans): No
O=C(O)CC1Sc2nnc(-c3cccs3)n2N=C1c1ccc(Cl)cc1 (centres unmarked) [Compound 15, 2-(6-(4-chlorophenyl)-3-(thiophen-2-yl)-7H-[1,2,4]triazolo[3,4-b][1,3,4]thiadiazin-7-yl)acetic acid] | 50 | – | –
O=C(O)CC1Sc2nnc(Cc3ccc(Br)cc3)n2N=C1c1ccc(Cl)c(Cl)c1 (centres unmarked) [Compound 16, 2-(3-(4-bromobenzyl)-6-(3,4-dichlorophenyl)-7H-[1,2,4]triazolo[3,4-b][1,3,4]thiadiazin-7-yl)acetic acid] | 95 | 78 | –
Cc1ccc(C2=Nn3c(Cc4ccc(Br)cc4)nnc3SC2CC(=O)O)cc1C (centres unmarked) [Compound 17, 2-(3-(4-bromobenzyl)-6-(3,4-dimethylphenyl)-7H-[1,2,4]triazolo[3,4-b][1,3,4]thiadiazin-7-yl)acetic acid] | 80 | 41 | –
O=C(O)CC1Sc2nnc(-c3cccs3)n2N=C1c1ccc(Cl)c(Cl)c1 (centres unmarked) [Compound 18, 2-(6-(3,4-dichlorophenyl)-3-(thiophen-2-yl)-7H-[1,2,4]triazolo[3,4-b][1,3,4]thiadiazin-7-yl)acetic acid] | 80 | – | –
O=C(O)CC1Sc2nnc(Cc3ccc(Br)cc3)n2N=C1c1ccc(Br)cc1 (centres unmarked) [Compound 19, 2-(3-(4-bromobenzyl)-6-(4-bromophenyl)-7H-[1,2,4]triazolo[3,4-b][1,3,4]thiadiazin-7-yl)acetic acid] | 90 | 67 | –
O=C(O)CC1Sc2nnc(Cc3ccc(Br)cc3)n2N=C1c1ccc(C(F)(F)F)cc1 (centres unmarked) [Compound 20, 2-(3-(4-bromobenzyl)-6-(4-(trifluoromethyl)phenyl)-7H-[1,2,4]triazolo[3,4-b][1,3,4]thiadiazin-7-yl)acetic acid] | 57 | 11 | –
Cc1ccc(C2=Nn3c(Cc4ccc(Br)cc4)nnc3SC2CC(=O)O)cc1 (centres unmarked) [Compound 21, 2-(3-(4-bromobenzyl)-6-(p-tolyl)-7H-[1,2,4]triazolo[3,4-b][1,3,4]thiadiazin-7-yl)acetic acid] | 63 | 32 | –
COc1ccc(C2=Nn3c(Cc4ccc(Br)cc4)nnc3SC2CC(=O)O)cc1 (centres unmarked) [Compound 22, 2-(3-(4-bromobenzyl)-6-(4-methoxyphenyl)-7H-[1,2,4]triazolo[3,4-b][1,3,4]thiadiazin-7-yl)acetic acid] | 44 | 35 | –
O=C(O)CC1Sc2nnc(Cc3ccc(Br)cc3)n2N=C1c1ccc(F)cc1 (centres unmarked) [Compound 23, 2-(3-(4-bromobenzyl)-6-(4-fluorophenyl)-7H-[1,2,4]triazolo[3,4-b][1,3,4]thiadiazin-7-yl)acetic acid] | 39 | 25 | –
Cc1ccc(C2=Nn3c(Cc4ccc(Br)cc4)nnc3SC2CC(=O)O)c(C)c1 (centres unmarked) [Compound 24, 2-(3-(4-bromobenzyl)-6-(2,4-dimethylphenyl)-7H-[1,2,4]triazolo[3,4-b][1,3,4]thiadiazin-7-yl)acetic acid] | 0 | 1 | –
O=C(O)CC1Sc2nnc(-c3ccc(Br)cc3)n2N=C1c1ccc(Cl)cc1 (centres unmarked) [Compound 26, 2-(3-(4-bromophenyl)-6-(4-chlorophenyl)-7H-[1,2,4]triazolo[3,4-b][1,3,4]thiadiazin-7-yl)acetic acid] | 41 | 23 | –
O=C(O)CC1Sc2nnc(CCc3ccc(Br)cc3)n2N=C1c1ccc(Cl)cc1 (centres unmarked) [Compound 27, 2-(3-(4-bromophenethyl)-6-(4-chlorophenyl)-7H-[1,2,4]triazolo[3,4-b][1,3,4]thiadiazin-7-yl)acetic acid] | 69 | 48 | –
O=C(O)CC1Sc2nnc(Cc3ccccc3)n2N=C1c1ccc(Cl)cc1 (centres unmarked) [Compound 28, 2-(3-benzyl-6-(4-chlorophenyl)-7H-[1,2,4]triazolo[3,4-b][1,3,4]thiadiazin-7-yl)acetic acid] | 43 | 30 | –
O=C(O)CC1Sc2nnc(Cc3ccc(-c4ccccc4)cc3)n2N=C1c1ccc(Cl)cc1 (centres unmarked) [Compound 29, 2-(3-([1,1′-biphenyl]-4-ylmethyl)-6-(4-chlorophenyl)-7H-[1,2,4]triazolo[3,4-b][1,3,4]thiadiazin-7-yl)acetic acid] | 100 | 100 | –
O=C(O)CC1Sc2nnc(Cc3ccc4ccccc4c3)n2N=C1c1ccc(Cl)cc1 (centres unmarked) [Compound 30, 2-(6-(4-chlorophenyl)-3-(naphthalen-2-ylmethyl)-7H-[1,2,4]triazolo[3,4-b][1,3,4]thiadiazin-7-yl)acetic acid] | 88 | 49 | –
O=C(O)CC1Sc2nnc(Cc3ccc(-c4ccccc4)cc3)n2N=C1c1ccc(Cl)c(Cl)c1 (centres unmarked) [Compound 31, 2-(3-([1,1′-biphenyl]-4-ylmethyl)-6-(3,4-dichlorophenyl)-7H-[1,2,4]triazolo[3,4-b][1,3,4]thiadiazin-7-yl)acetic acid] | 100 | 100 | inhibition at 10 µM (recombinant MtbUGM; 10 μM, mean of two replicates): 50%
COC(=O)CC1Sc2nnc(-c3cccs3)n2N=C1c1ccc(Cl)cc1 (centres unmarked) [Compound 32, Methyl-2-(6-(4-chlorophenyl)-3-(thiophen-2-yl)-7H-[1,2,4]triazolo[3,4-b][1,3,4]thiadiazin-7-yl)acetate] | 20 | – | –
C=CCNC(=O)CC1Sc2nnc(-c3cccs3)n2N=C1c1ccc(Cl)cc1 (centres unmarked) [Compound 34, N-allyl-2-(6-(4-chlorophenyl)-3-(thiophen-2-yl)-7H-[1,2,4]triazolo[3,4-b][1,3,4]thiadiazin-7-yl)acetamide] | 0 | – | –
C=CCNC(=O)CC1Sc2nnc(Cc3ccc(Br)cc3)n2N=C1c1ccc(Cl)cc1 (centres unmarked) [Compound 35, N-allyl-2-(3-(4-bromobenzyl)-6-(4-chlorophenyl)-7H-[1,2,4]triazolo[3,4-b][1,3,4]thiadiazin-7-yl)acetamide] | 0 | – | –
O=C(CC1Sc2nnc(Cc3ccc(Br)cc3)n2N=C1c1ccc(Cl)cc1)NS(=O)(=O)c1cccs1 (centres unmarked) [Compound 36] | – | – | inhibition at 10 µM (recombinant MtbUGM): 18%; inhibition at 50 µM (recombinant MtbUGM): 87%; inhibition at 100 µM (recombinant MtbUGM): 100%
O=C(CC1Sc2nnc(Cc3ccc(Br)cc3)n2N=C1c1ccc(Cl)cc1)NS(=O)(=O)c1ccc(Cl)s1 (centres unmarked) [Compound 37] | – | – | inhibition at 10 µM (recombinant MtbUGM): 35%; inhibition at 50 µM (recombinant MtbUGM): 100%; inhibition at 100 µM (recombinant MtbUGM): 100%
Cn1cnc(S(=O)(=O)NC(=O)CC2Sc3nnc(Cc4ccc(Br)cc4)n3N=C2c2ccc(Cl)cc2)c1 (centres unmarked) [Compound 38] | – | – | inhibition at 50 µM (recombinant MtbUGM): 36%; inhibition at 100 µM (recombinant MtbUGM): 68%
O=C(CC1Sc2nnc(Cc3ccc(Br)cc3)n2N=C1c1ccc(Cl)c(Cl)c1)NS(=O)(=O)c1ccccc1 (centres unmarked) [Compound 39] | – | – | inhibition at 10 µM (recombinant MtbUGM): 51%; inhibition at 50 µM (recombinant MtbUGM): 100%; inhibition at 100 µM (recombinant MtbUGM): 100%
O=C(CC1Sc2nnc(Cc3ccc(-c4ccccc4)cc3)n2N=C1c1ccc(Cl)c(Cl)c1)NS(=O)(=O)c1ccccc1 (centres unmarked) [Compound 40] | – | – | inhibition at 10 µM (recombinant MtbUGM): 85%; inhibition at 50 µM (recombinant MtbUGM): 100%; inhibition at 100 µM (recombinant MtbUGM): 100%
